The results in this text go back to patent publication US20230219965A1 (KSQ Therapeutics, Inc., priority 2020, published 2023).

A short description of data set [1]: Liver microsomal metabolic stability, rat liver microsomes (RLM). Conditions: rat, liver microsomes, t1/2 (min) in RLM, 1 μM compound, 1 mg/mL microsomes, NADPH. For orientation: Microsomes from liver hold many membrane-bound enzymes, among them those of drug oxidation.
Description: Samples were prepared by adding 222.5 μL of a master solution (100 mM phosphate buffer and 1 mg/mL liver microsomes (HLM or RLM)) and 25 μL of a 10 mM NADPH solution to incubation plates, which were then warmed for 10 min. Each compound was separately dissolved in DMSO to prepare 10 mM stock solutions, which were then diluted to 100 μM with acetonitrile. A reaction was started by adding 2.5 μL of the 100 μM solution of each compound to separate incubation plates such that the final concentration of for each compound in each plate was 1 μM.
25 μL aliquots of each sample were taken at 0.5, 5, 10, 15, 20 and 30 minutes, and the reaction was stopped by adding 5 volumes of cold acetonitrile with IS (100 nM alprazolam, 200 nM caffeine and 100 nM tolbutamide). The samples were then centrifuged at 3,220 G for 30 minutes, and 100 μL of the supernatant fluid was mixed with 100 μL of ultra-pure H2O.
The samples were then analyzed by LC-MS/MS. Peak areas were determined from extracted ion chromatograms. Slope values (k) were determined by linear regression of the natural logarithm of the remaining percentage of the compound vs. incubation time curve. The in vitro half-life (in vitro t1/2) was determined from the slope value using the following equation:
The nature of data set [2]: ADME solubility determination in PBS at pH 2.0 and pH 7.4. It counts as physicochemical. The conditions noted are these: phosphate buffered saline, 25 °C, thermodynamic from solid. The method, then: Certain Compounds of the Disclosure were assessed for ADME solubility at pH 2.0 and pH 7.4.
Stock solutions were prepared by adding each compound to DMSO at a concentration of 10 mM. Samples were prepared by adding 50 μL of each stock solution to separate vials. The vials were loaded onto a 96-well rack and dried. 500 μL of Phosphate Buffered Saline (PBS) pH 7.4 or PBS pH 2.0 were added into each vial. The vials were then shaken at 25° C. and 1,100 rpm for 24 hours.
After 24 hours, the vials were centrifuged at 3220 G and 25° C. for 30 minutes. The supernatant fluid was analyzed by LC-MS/MS against a standard of known concentration. The solubility of each sample was then calculated using the equation below: […]
where DF is the dilution factor.

In data set [3] the target is USP1/UAF1 enzyme (Homo sapiens, UniProt O94782). In words: USP1/UAF1 deubiquitination assay (ubiquitin-rhodamine 110 substrate). It counts as biochemical. The conditions noted are these: read-out: USP1 IC50 (Ub-Rho). The method in brief:
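0.05 nM USP1/UAF1 was preincubated 10 min with compounds (dose response from 10 μM) in 50 mM Tris-HCl pH 7.8, 0.5 mM EDTA, 0.01% BSA, 1 mM DTT, 0.01% Tween-20. 150 nM ubiquitin-rhodamine 110 started the reaction, read kinetically 30 min at Ex480/Em540; IC50 by four-parameter fit versus no-enzyme and DMSO controls.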

A short description of data set [4]: Liver microsomal metabolic stability, human liver microsomes (HLM). The conditions noted are these: human, liver microsomes.
[5] abbreviates: pH 2, aqueous buffer, PBS pH 2.0, 25° C., read-out: Solubility at pH 2.0.
Setting [6] is: pH 7.4, aqueous buffer, PBS pH 7.4, 25° C., read-out: Solubility at pH 7.4.

Like-named read-outs stand apart in the source and are kept apart here.

USP1/UAF1 enzyme, sequence (O94782 whole entry): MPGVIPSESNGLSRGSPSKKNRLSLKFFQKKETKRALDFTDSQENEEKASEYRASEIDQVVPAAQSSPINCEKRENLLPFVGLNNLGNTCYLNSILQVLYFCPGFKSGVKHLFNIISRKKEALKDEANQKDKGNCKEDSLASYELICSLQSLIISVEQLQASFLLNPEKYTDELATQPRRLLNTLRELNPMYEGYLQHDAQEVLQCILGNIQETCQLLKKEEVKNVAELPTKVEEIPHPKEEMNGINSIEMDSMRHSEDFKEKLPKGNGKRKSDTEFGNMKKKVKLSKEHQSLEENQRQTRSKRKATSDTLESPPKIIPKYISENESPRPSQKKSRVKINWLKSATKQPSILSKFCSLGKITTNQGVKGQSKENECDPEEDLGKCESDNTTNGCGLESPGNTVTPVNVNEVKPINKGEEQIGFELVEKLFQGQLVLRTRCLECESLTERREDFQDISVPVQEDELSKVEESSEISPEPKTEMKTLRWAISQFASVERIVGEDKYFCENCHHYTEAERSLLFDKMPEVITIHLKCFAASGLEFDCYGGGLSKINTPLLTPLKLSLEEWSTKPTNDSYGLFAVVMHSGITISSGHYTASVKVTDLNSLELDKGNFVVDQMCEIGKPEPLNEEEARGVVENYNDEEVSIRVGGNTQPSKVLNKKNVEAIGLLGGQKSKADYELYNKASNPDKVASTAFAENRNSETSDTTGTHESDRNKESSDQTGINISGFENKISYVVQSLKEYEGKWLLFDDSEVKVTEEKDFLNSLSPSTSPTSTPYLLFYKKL
USP1/UAF1 enzyme, sequence (Q8TAF3 whole entry partner): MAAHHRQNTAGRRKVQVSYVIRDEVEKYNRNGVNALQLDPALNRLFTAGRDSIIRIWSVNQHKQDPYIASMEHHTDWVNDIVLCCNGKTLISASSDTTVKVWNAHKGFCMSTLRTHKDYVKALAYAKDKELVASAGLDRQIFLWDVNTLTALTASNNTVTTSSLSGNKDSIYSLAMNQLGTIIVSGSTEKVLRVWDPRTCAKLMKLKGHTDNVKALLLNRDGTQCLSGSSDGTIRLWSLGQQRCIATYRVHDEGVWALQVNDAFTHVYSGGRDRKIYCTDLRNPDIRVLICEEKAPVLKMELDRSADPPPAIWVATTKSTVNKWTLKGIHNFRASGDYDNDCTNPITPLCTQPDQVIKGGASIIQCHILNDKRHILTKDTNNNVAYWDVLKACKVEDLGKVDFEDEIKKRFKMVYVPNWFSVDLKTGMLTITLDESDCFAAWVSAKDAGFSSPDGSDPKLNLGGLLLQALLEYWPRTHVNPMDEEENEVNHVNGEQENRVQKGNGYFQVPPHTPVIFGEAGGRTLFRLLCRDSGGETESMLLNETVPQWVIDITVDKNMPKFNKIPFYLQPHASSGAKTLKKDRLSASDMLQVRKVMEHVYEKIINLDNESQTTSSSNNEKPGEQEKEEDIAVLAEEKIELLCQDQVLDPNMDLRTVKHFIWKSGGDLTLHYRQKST

Regarding `COc1ncnc(C2CC2)c1-c1cc2n(n1)CCC(=O)N2Cc1ccc(-n2nc(C(F)(F)F)cc2C)cc1` [Example 4, 2-(4-cyclopropyl-6-methoxypyrimidin-5-yl)-4-(4-(5-methyl-3-(trifluoromethyl)-1H-pyrazol-1-yl)benzyl)-6,7-dihydropyrazolo[1,5-a]pyrimidin-5(4H)-one], the half-life at 1 μM in data set [1] and in data set [4] was more than 25 min throughout. Also, the solubility at 24 h in data set [2] (setting [5]) and in data set [2] (setting [6]) was less than 10 µM each time. The IC50 (commonly the midpoint of a concentration-inhibition curve) in data set [3] was less than 100 nM.
In the case of `CCn1cc(C(F)(F)F)nc1-c1ccc(N[C@@H]2CCCn3nc(-c4c(Cl)cnn4[C@@H](C)CF)cc32)cc1` (single isomer, unassigned) [Example 324], the half-life at 1 μM in data set [1] and in data set [4] was more than 25 min each time. In addition, the solubility at 24 h in data set [2] (setting [5]) and in data set [2] (setting [6]) was less than 10 µM in each case. In data set [3], the 50% inhibitory concentration (IC50) is less than 100 nM.
For the compound `CC(C)n1ncc(Cl)c1-c1cc2n(n1)CC(O)C(=O)N2Cc1ccc(-c2nc(C(F)(F)F)cn2C)cc1` (stereo not drawn) [Example 231, 2-(4-chloro-1-isopropyl-1H-pyrazol-5-yl)-6-hydroxy-4-(4-(1-methyl-4-(trifluoromethyl)-1H-imidazol-2-yl)benzyl)-6,7-dihydropyrazolo[1,5-α]pyrimidin-5(4H)-one], the half-life at 1 μM in data set [1] and in data set [4] was more than 25 min throughout. Moreover, the solubility at 24 h in data set [2] (setting [5]) and in data set [2] (setting [6]) was less than 10 µM each time. The 50% inhibitory concentration (IC50) in data set [3] is 100 to 500 nM.
As for `CC(C)n1cc([N+](=O)[O-])nc1-c1ccc(CN2C(=O)CCn3nc(-c4c(Cl)cnn4C(C)C)cc32)cc1` [Example 112], the results for the half-life at 1 μM in data set [1] and in data set [4] were less than 25 min and more than 25 min, respectively. Further, the solubility at 24 h in data set [2] (setting [5]) and in data set [2] (setting [6]) was less than 10 µM in each case. Also, in data set [3], the IC50 is less than 100 nM.
Take `CC(C)n1ncc(Cl)c1-c1cc2n(n1)CCC(=O)N2Cc1ccc(-c2ncccc2N(C)C)c(Cl)c1` [Example 312]: the half-life at 1 μM in data set [1] and in data set [4] was less than 25 min throughout. Besides, the results for the solubility at 24 h in data set [2] (setting [5]) and in data set [2] (setting [6]) were not below 10 µM and less than 10 µM, respectively. Further, the IC50 in data set [3] was less than 100 nM.
Regarding `COc1ncnc(C2CC2)c1-c1cc2n(n1)CC(C)C(=O)N2Cc1ccc(-c2nc(C(F)(F)F)cn2C)cc1` (stereo not shown) [Example 32], the half-life at 1 μM in data set [1] and in data set [4] was more than 25 min throughout. Besides, the solubility (as a rule, the concentration that dissolves in the medium under given conditions) at 24 h is not below 10 µM in data set [2] (setting [5]) and less than 10 µM in data set [2] (setting [6]). Further, the half-maximal inhibitory concentration (IC50) in data set [3] is less than 100 nM.
Turning to `CCn1cc(C(F)(F)F)nc1-c1ccc([C@H](C)N2C(=O)CCn3nc(-c4c(OC(F)F)ncnc4C4CC4)nc32)cc1` [Example 209], the half-life at 1 μM in data set [1] and in data set [4] was less than 25 min in each case. Also, the solubility at 24 h was not below 10 µM in data set [2] (setting [5]) and less than 10 µM in data set [2] (setting [6]). Also, the IC50 in data set [3] was less than 100 nM.
As for `Cn1cc(C(F)(F)F)nc1-c1ccc(CN2C(=O)CCn3nc(-c4c(Cl)cnn4C4CCC4)cc32)cc1F` [Example 19, 2-(4-chloro-1-cyclobutyl-1H-pyrazol-5-yl)-4-(3-fluoro-4-(1-methyl-4-(trifluoromethyl)-1H-imidazol-2-yl)benzyl)-6,7-dihydropyrazolo[1,5-a]pyrimidin-5(4H)-one], the half-life at 1 μM in data set [1] and in data set [4] was less than 25 min each time. In addition, the solubility at 24 h in data set [2] (setting [5]) and in data set [2] (setting [6]) was less than 10 µM in each case. Further, the IC50 in data set [3] is less than 100 nM.
With `Cc1cnn(C(C)C)c1-c1cc2n(n1)C(C)CC(=O)N2Cc1ccc(-c2nc(C(F)(F)F)cn2C)cc1` (stereo not drawn) [Example 36, 2-(1-isopropyl-4-methyl-1H-pyrazol-5-yl)-7-methyl-4-(4-(1-methyl-4-(trifluoromethyl)-1H-imidazol-2-yl)benzyl)-6,7-dihydropyrazolo[1,5-α]pyrimidin-5(4H)-one], the half-life at 1 μM in data set [1] and in data set [4] was less than 25 min each time. The solubility at 24 h in data set [2] (setting [5]) and in data set [2] (setting [6]) was not below 10 µM throughout. For the same compound, in data set [3], the IC50 is less than 100 nM.
Turning to `COc1cccnc1-c1ccc(CN2C(=O)CCn3nc(-c4c(Cl)cnn4C(C)C)cc32)cc1Cl` [Example 288], the half-life at 1 μM in data set [1] and in data set [4] was less than 25 min throughout. The solubility at 24 h in data set [2] (setting [5]) was not below 10 µM; in data set [2] (setting [6]), less than 10 µM. In data set [3], the IC50 was less than 100 nM.
As to `COc1cc(-c2nc(C(F)(F)F)cn2C(C)C)c(F)cc1CN1C(=O)CCn2nc(-c3c(OC)ncnc3C3CC3)nc21` [Example 202], the half-life at 1 μM in data set [1] and in data set [4] was more than 25 min each time. The solubility at 24 h in data set [2] (setting [5]) and in data set [2] (setting [6]) was less than 10 µM throughout. Further, the 50% inhibitory concentration (IC50) in data set [3] was less than 100 nM.
With `CC(C)Oc1cccnc1-c1ccc(CN2C(=O)CCn3nc(-c4c(Cl)cnn4C(C)C)cc32)cc1Cl` [Example 310], the half-life at 1 μM in data set [1] and in data set [4] was less than 25 min each time. In addition, the solubility at 24 h was not below 10 µM in data set [2] (setting [5]) and less than 10 µM in data set [2] (setting [6]). In addition, in data set [3], the IC50 was less than 100 nM.
Take `CCn1cc(C(F)(F)F)nc1-c1ccc(CN2CCCn3nc(-c4c(Cl)cnn4C(C)C)cc32)cc1F` [Example 60]: the half-life at 1 μM in data set [1] and in data set [4] was less than 25 min each time. Moreover, the solubility at 24 h in data set [2] (setting [5]) and in data set [2] (setting [6]) was less than 10 µM in each case. Moreover, the half-maximal inhibitory concentration (IC50) in data set [3] is less than 100 nM.
As for `CCn1cc(C(F)(F)F)nc1-c1ccc(CN2C(=O)CCn3nc(-c4c(Cl)cnn4C(C)C)cc32)cc1F` [Example 77, 2-(4-chloro-1-isopropyl-1H-pyrazol-5-yl)-4-(4-(1-ethyl-4-(trifluoromethyl)-1H-imidazol-2-yl)-3-fluorobenzyl)-6,7-dihydropyrazolo[1,5-α]pyrimidin-5(4H)-one], the half-life (in general, the time needed for the level to fall by half in the phase considered) at 1 μM is less than 25 min in data set [1] and more than 25 min in data set [4]. Further, the solubility at 24 h in data set [2] (setting [5]) and in data set [2] (setting [6]) was less than 10 µM throughout. Further, the IC50 in data set [3] is less than 100 nM.
For the compound `COc1cc(C#N)nn1-c1ccc(CN2C(=O)CCn3nc(-c4c(Cl)cnn4C(C)C)cc32)cc1` [Example 106], the half-life at 1 μM in data set [1] and in data set [4] was more than 25 min throughout. In addition, the solubility at 24 h in data set [2] (setting [5]) and in data set [2] (setting [6]) was less than 10 µM in each case. The IC50 in data set [3] is less than 100 nM.
For the compound `CCn1cc(C(F)(F)F)nc1-c1c(F)cc(CN2C(=O)CCn3nc(-c4c(Cl)cnn4C(C)C)nc32)cc1OC` [Example 187], the half-life at 1 μM in data set [1] was less than 25 min; in data set [4] it was more than 25 min. For the same compound, the solubility at 24 h in data set [2] (setting [5]) and in data set [2] (setting [6]) was less than 10 µM in each case. In addition, the IC50 in data set [3] was in the range of 100 to 500 nM.
Regarding `CCn1cc(C(F)(F)F)nc1-c1ccc(CN2C(=O)CCn3nc(-c4c(C#N)cnn4C(C)C)cc32)cc1` [Example 156], the half-life at 1 μM in data set [1] and in data set [4] was more than 25 min throughout. Also, the solubility at 24 h in data set [2] (setting [5]) and in data set [2] (setting [6]) was less than 10 µM throughout. Moreover, the IC50 in data set [3] is less than 100 nM.
`Cc1cnn(C(C)C)c1-c1cc2n(n1)CC(C)C(=O)N2Cc1ccc(-c2nc(C(F)(F)F)cn2C)cc1` (stereo not drawn) [Example 31, 2-(1-isopropyl-4-methyl-1H-pyrazol-5-yl)-6-methyl-4-(4-(1-methyl-4-(trifluoromethyl)-1H-imidazol-2-yl)benzyl)-6,7-dihydropyrazolo[1,5-α]pyrimidin-5(4H)-one]: the half-life at 1 μM in data set [1] and in data set [4] was less than 25 min throughout. For the same compound, the figures for the solubility at 24 h in data set [2] (setting [5]) and in data set [2] (setting [6]) were not below 10 µM and less than 10 µM, respectively. Besides, the IC50 in data set [3] was 100 to 500 nM.
For `CCn1cc(C(F)(F)F)nc1-c1ccc([C@@H](C)n2c(=O)ccn3nc(-c4c(OC)ncnc4C4CC4)nc23)cc1F` [Example 341, (R)-2-(4-cyclopropyl-6-methoxypyrimidin-5-yl)-4-(1-(4-(1-ethyl-4-(trifluoromethyl)-1H-imidazol-2-yl)-3-fluorophenyl)ethyl)-[1,2,4]triazolo[1,5-a]pyrimidin-5(4H)-one], the half-life at 1 μM in data set [1] and in data set [4] was more than 25 min in each case. The solubility at 24 h in data set [2] (setting [5]) and in data set [2] (setting [6]) was not below 10 µM in each case. In data set [3], the IC50 is less than 100 nM.
For `CCn1cc(C(F)(F)F)nc1-c1ccc(CN2C(=O)CCn3nc(-c4c(Cl)cnn4C4COC4)cc32)cc1` [Example 154, 2-(4-chloro-1-(oxetan-3-yl)-1H-pyrazol-5-yl)-4-(4-(1-ethyl-4-(trifluoromethyl)-1H-imidazol-2-yl)benzyl)-6,7-dihydropyrazolo[1,5-α]pyrimidin-5(4H)-one], the half-life at 1 μM in data set [1] and in data set [4] was more than 25 min in each case. Also, the solubility at 24 h in data set [2] (setting [5]) and in data set [2] (setting [6]) was less than 10 µM in each case. Further, the IC50 in data set [3] was less than 100 nM.
